The subject of data set [1] is xenografted tumors. To be noted: following collagenase treatment of xenografted tumors; cited from earlier work.
In data set [2] the test system is rat brain. To be noted: hyperosmolar mannitol co-infusion; cited from earlier work.
The conditions of data set [3]: co-infused with 20% mannitol; cited from earlier work.
Data set [4] deals with striatum of the normal rat brain. The experiment in a line: In vivo nanoparticle infusions by CED with enzymatic or hyperosmolar treatment.
For data set [5], the system named is hyaluronan (HA). The experiment in a line: Histochemical assessment of hyaluronan degradation (HABP staining). Type of data set: in vivo, rat. As to the method:
Degradation of HA was determined by staining with hyaluronic acid binding protein (HABP) following 1 μL infusions of 1000 U/mL hyaluronidase into the striatum following the same surgical procedure outlined above. Following degradation times of 30 min, 6, 12, and 24 hr brains were harvested and post-fixed in 4% paraformaldehyde in PBS at 4° C. for 4 days. The tissue was cryo-protected in 30% sucrose for 3 days, frozen at −70° C., and sectioned into 50 μm slices. Tissue slices were immersed in biotinylated HABP ([…], Calbiochem 385911) in PBS and left overnight on an orbital shaker. Slides were then immersed Alexa 555-Streptavidin conjugate (2 mg/mL, Invitrogen S21281) for two hours. Following several washing steps in PBS, stained slices were mounted with ProLong Gold Antifade media (Invitrogen P36930) and covered. Fluorescent images were captured using the same set-up described for nanoparticle imaging.

The conditions of data set [6]: in 0.3% agarose; cited from earlier work.

Entries after “also recorded” stand apart in the source; their conditions may differ.

With collagenase, the “increase in the diffusivity of IgG” value in data set [1] is 100%.
As for `OC[C@@H](O)[C@@H](O)[C@H](O)[C@H](O)CO` [Mannitol, mannitol], the “increase in the distribution volume of 40 nm liposomes” value in data set [2] is on record as 50%. In addition, the “distribution volume of 2 kDa dextran” value in data set [3] is reported as “unchanged”. Besides, the “entrainment of nanoparticles in perivascular spaces / branched distribution indicative of perivascular transport” value in data set [4] (co-infusion of mannitol with nanoparticles) is reported as “attenuated; also recorded: not observed”. The “increase in nanoparticle distribution volume” value in data set [4] (co-infusion with 25% mannitol, untreated tissue vs untreated tissue without mannitol) is recorded as 133%; in data set [4] (mannitol co-infusion into enzyme-treated (24 hr hyaluronidase) tissue vs enzyme-treated tissue), 23%.
In the case of Hyaluronidase, the “degradation of HA by HABP staining” value in data set [5] (30 min and 6 hr after 1 μL of 1000 U/mL) is “some evidence of degradation”; in data set [5] (12 hr and 24 hr after 1 μL of 1000 U/mL), “widespread degradation of HA”; in data set [5] (24 hr incubation), “most complete digestion of HA”. Moreover, the “effect on nanoparticle distribution volume” value in data set [4] (30 min digestion with hyaluronidase) is recorded as “no measurable change; also recorded: no measurable effect”. For the same compound, in data set [4] (24 hr digestion with hyaluronidase vs normal tissue), the “increase in nanoparticle distribution volume” value is 70%.
Consider albumin, for which, in data set [6], the “diffusivity D” value was 8.3×10^−7 cm^2/s.
